Consider eleven compounds from BindingDB's records for patent US20230285340 (Theravance Biopharma R&D Ip, 2023).

Each structure is given as a SMILES string.

In this test the target is Neprilysin/Angiotensin-converting enzyme (Homo sapiens, UniProt P08473+P12821). In words: Enzyme Inhibition Assays (Assay 1).
Method: The assays were performed in 384-well white opaque plates at 37° C. using the fluorogenic peptide substrates at a concentration of 10 μM in Assay Buffer (NEP: 50 mM HEPES, pH 7.5, 100 mM NaCl, 0.01% polyethylene glycol sorbitan monolaurate (Tween-20), 10 μM ZnSO4; ACE: 50 mM HEPES, pH 7.5, 100 mM NaCl, 0.01% Tween-20, 1 μM ZnSO4). […] Test compounds were added to the enzymes and incubated for 30 minute at 37° C. prior to initiating the reaction by the addition of substrate. Reactions were terminated after 20 minutes of incubation at 37° C. by the addition of glacial acetic acid to a final concentration of 3.6% (v/v). […] Inhibition constants were obtained by nonlinear regression of the data using the equation (GraphPad Software, Inc., San Diego, Calif.)
In the case of `O=C(O)C(=O)N[C@H](Cc1ccc(-c2ccccc2)cc1Cl)C[C@@H](O)C(=O)O` [US20230285340, Example 4], the Ki (as a rule, a measure of affinity in units of concentration, obtained from inhibition or displacement) lay in the range of 0.00126 to 0.01 µM.

In turn, `CCOC(=O)C(=O)NN(Cc1ccc(-c2cc(Cl)ccc2F)cc1)C[C@@H](O)C(=O)O` [US20230285340, Example 14F] came in with a Ki of 0.00126 to 0.01 µM.

In the case of `O=C(O)C(=O)NN(Cc1ccc(-c2cccc(Cl)c2)cc1)C[C@@H](O)C(=O)O` [US20230285340, Example 13], the Ki fell in the range of 0.00126 to 0.01 µM.

`CC(C)COC(=O)[C@H](O)C[C@@H](Cc1ccc(-c2cccc(Cl)c2)cc1)NC(=O)C(=O)O` [US20230285340, Example 2I] gave a Ki of 0.00126 to 0.01 µM.

The compound `CC(C)(c1ccc(-c2ccccc2)cc1)[C@H](C[C@@H](O)C(=O)O)NC(=O)C(=O)O` [US20230285340, Example 15] gave a Ki of 0.0126 to 0.1 µM.

In turn, `CC(C)(c1ccc(-c2ccccc2)cc1)[C@H](C[C@@H](CO)C(=O)O)NC(=O)C(=O)O` [US20230285340, Example 16] displayed a Ki of 0.00126 to 0.01 µM.

`CC(O)(CN(Cc1ccc(-c2ccccc2)cc1)NC(=O)C(=O)O)C(=O)O` (stereo unspecified) [US20230285340, Example 12]: the Ki lay within 0.0126 to 0.1 µM.

`CC(C)OC(=O)[C@H](O)C[C@@H](Cc1ccc(-c2cccc(Cl)c2)cc1)NC(=O)C(=O)O` [US20230285340, Example 2J] registered a Ki of 0.0126 to 0.1 µM.

`CC(C)OC(=O)C(=O)N[C@H](Cc1ccc(-c2cccc(Cl)c2)cc1)C[C@@H](O)C(=O)O` [US20230285340, Example 2G]: the Ki was 0.00126 to 0.01 µM.

`C[C@@](CO)(C[C@@H](Cc1ccc(-c2ccccc2)cc1)NC(=O)C(=O)O)C(=O)O` [US20230285340, Example 9A] registered a Ki of 0.00126 to 0.01 µM.

In turn, `C[C@@](CO)(C[C@@H](Cc1ccc(-c2cccc(F)c2)cc1)NC(=O)C(=O)O)C(=O)O` [US20230285340, Example 10] displayed a Ki of 0.00126 to 0.01 µM.
